Results: patent publication US4764522A, “Ethylenediamine monoamides” (Hoffmann-La Roche Inc., priority 1984, dated 1988)
Where a name gives a salt, the structure may show the parent alone. Read-outs that look alike come from different tables or passages of the source.

Tests used:
[1] = toxicity (LD50), p.o. in the mouse; conditions: in vivo, po
Procedure: The MAO inhibiting activity of the compounds in accordance with the invention can be determined using standard methods. Thus, the substances to be tested were administered p.o. to rats. Two hours thereafter the animals were killed and the MAO inhibiting activity was measured in homogenates of the brain according to the method described in Biochem. Pharmacol. 12 (1963) 1439-1441, but using phenethylamine (2.10^-5 mol.1^-1) in place of tyramine as the substrate. The thus-determined activity of some compounds in accordance with the invention as well as their toxicity are evident from the following ED50 values (μmol/kg, p.o. in the rat) and LD50 values (mg/kg, p.o. in the mouse), respectively: […]

[2] = biological target: T1, monoamine oxidase (MAO) (Rattus norvegicus, UniProt P19643); assay: MAO inhibiting activity measured in homogenates of the brain two hours after p.o. administration to rats (phenethylamine as substrate); type: in vivo; conditions: po, read-out: ED50 (MAO inhibiting activity)
T1 construct: from tissue; host or cells: rat brain homogenate (ex vivo, two hours after p.o. dosing)
T1 sequence (P19643 1-520): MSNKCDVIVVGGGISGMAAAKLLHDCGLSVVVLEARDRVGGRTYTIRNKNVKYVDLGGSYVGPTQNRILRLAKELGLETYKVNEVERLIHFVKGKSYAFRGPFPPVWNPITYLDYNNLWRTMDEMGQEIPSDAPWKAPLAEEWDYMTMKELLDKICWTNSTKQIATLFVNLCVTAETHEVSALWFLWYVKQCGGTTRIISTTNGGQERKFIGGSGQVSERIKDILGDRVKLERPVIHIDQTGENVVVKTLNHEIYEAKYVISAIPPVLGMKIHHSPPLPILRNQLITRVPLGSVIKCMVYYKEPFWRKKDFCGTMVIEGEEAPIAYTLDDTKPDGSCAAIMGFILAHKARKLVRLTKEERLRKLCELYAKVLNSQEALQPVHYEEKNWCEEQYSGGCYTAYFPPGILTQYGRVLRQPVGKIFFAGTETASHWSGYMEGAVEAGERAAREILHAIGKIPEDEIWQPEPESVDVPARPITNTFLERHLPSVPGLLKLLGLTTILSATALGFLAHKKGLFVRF
Procedure: The MAO inhibiting activity of the compounds in accordance with the invention can be determined using standard methods. Thus, the substances to be tested were administered p.o. to rats.

Row | SMILES | LD50 [1] [mg/kg] | ED50 ([2]; rat, 2 h) [µmol/kg] | ED50 ([2]; p.o. in the rat, brain homogenates 2 hours after administration, substrate phenethylamine 2.10^-5 mol.1^-1) [µmol/kg]
1 | Cc1cc(C(=O)NCCN)no1.Cl [N-(2-aminoethyl)-5-methylisoxazole-3-carboxamide hydrochloride] | > 4000 | 20 | 
2 | Cl.NCCNC(=O)c1cc(Cl)ccn1 [N-(2-aminoethyl)-4-chloropyridine-2-carboxamide hydrochloride] | 1250 to 2500 | 5 | 
3 | Cl.NCCNC(=O)c1csc(Cl)n1 [N-(2-aminoethyl)-2-chlorothiazole-4-carboxamide hydrochloride] | 2500 to 5000 | 6 | 
4 | NCCNC(=O)c1cccc(Cl)n1 [N-(2-aminoethy)-6-chloropyridine-2-carboxamide hydrochloride] | 625 to 1250 |  | 10
5 | Cl.Cl.NCCNC(=O)c1ccccn1 [N-(2-aminoethyl)-pyridine-2-carboxamide dihydrochloride] | > 4000 | 1.7 | 
6 | Cl.Cl.NCCNC(=O)c1ncccc1N [N-(2-aminoethyl)-3-aminopyridine-2-carboxamide dihydrochloride] | 2500 to 5000 | 5 | 
7 | Cl.NCCNC(=O)c1cccc(Br)n1 [N-(2-aminoethyl)-6-bromopyridine-2-carboxamide hydrochloride] | 1000 to 2000 | 8 | 
8 | Cl.NCCNC(=O)c1ncsc1Br [N-(2-aminoethyl)-5-bromothiazole-4-carboxamide hydrochloride] | 1250 to 2500 | 10 | 
9 | Cl.NCCNC(=O)c1cc(Br)ccn1 [N-(2-aminoethyl)-4-bromopyridine-2-carboxamide hydrochloride] | 1000 to 2000 | 4 | 
10 | Cl.NCCNC(=O)c1ccc(Cl)cn1 [N-(2-aminoethyl)-5-chloropyridine-2-carboxamide hydrochloride] | 1000 to 2000 |  | 
